Source: patent publication US11878045B2, “Inducing cell death by hyperactivation of motility networks” (The Johns Hopkins University, priority 2016, dated 2024)
Entries after “also recorded” stand apart in the source; their conditions may differ.

Key:
[1] = test system: Dictyostelium pten− cells; conditions: for cytotoxicity for Dictyostelium pten− cells: 5 μM statin, three day period (17, 41, 65 hours); for time after drug treatment at which cell death started to occur: pten− cells; for growth of pten− cells compared to DMSO control: three day period
Procedure: Cells were treated with 5 μM fluvastatin or DMSO. Images were taken 17 hours (left), 41 hours (middle), and 65 hours (right) after drug treatment.
Seven statins currently available on the market were tested for cytotoxicity on pten− cells. The graph quantifies growth of cells treated with 5 μM of statins or DMSO control over a three day period. Blue, orange, and yellow bars represent relative cell counts 17 hours, 41 hours, and 65 hours after drug treatment.
Statins are inhibitors of HMG-CoA reductase, the rate-controlling enzyme of the mevalonate pathway.

wild type cells [2] = assay: Phenotypic screen of the Johns Hopkins drug library, wild-type counter-screen; assay type: cell-based, Dictyostelium; conditions: library screen hits
Source text: (§1) FIG. 7 is a diagram showing the process of drug library screen. […] Secondary screen confirmed nine compounds with effects selective for pten− but not wild-type cells.
(§2) The John Hopkins Drug Library contains 2560 drugs that are either FDA approved, have been proven in other countries for treating human diseases, or have entered phase II clinical trials. […] These compounds fell into several classes: certain phenothiazines (promazine, chlorpromazine, and thioridazine), certain antibiotics (polymyxin and chloroxine), certain statins (fluvastatin and pitavastatin), and others (benfluorex and phenazopyridine). All of the hits were validated independently with purchased compounds and repeating the experiments.

[3] = test system: Dictyostelium pten− cells; assay: Phenotypic screen of the Johns Hopkins drug library on growth of pten− cells; assay type: cell-based; conditions: hits validated independently with purchased compounds
Source text: as §1, §2

wild type cells [4] = assay: Statin growth test on wild type cells; assay type: cell-based, Dictyostelium
Procedure: Cells were treated with 5 μM fluvastatin or DMSO.

pten−/− cells = assay: Add-back experiments (MVA, GGPP, cholesterol) with pitavastatin; assay type: cell-based, human
[5] = test system: MCF10-A harboring oncogenic PIK3CA mutations; assay: Growth of mammary epithelial cells with oncogenic PIK3CA mutations under compound treatment; assay type: cell-based, human; conditions: 5 μM
Procedure: (§3) To test whether the hits from the drug screen targeted human pre-metastatic cells, the growth of the human mammary epithelial cell lines MCF-10A, MCF-10A with homozygous pten deletion (pten−/−), or MCF10-A harboring oncogenic PIK3CA mutations under compound treatment were measured.

[6] = test system: MCF-10A with homozygous pten deletion (pten−/−); assay: Growth of mammary epithelial cells with homozygous pten deletion under compound treatment; assay type: cell-based, human; conditions: 5 μM
Procedure: (§4) MCF-10A or pten−/− cells were treated with DMSO control or 5 μM pitavastatin. Upper and lower panels show 44 hours and 68 hours after drug treatment.
(§5) Cells were treated with DMSO control or 5 μM drugs. Blue, orange, and yellow bars represent 20 hours, 44 hours, and 68 hours after drug treatment.
as §3

MCF-10A cells = assay: Growth of parental mammary epithelial cells under compound treatment; assay type: cell-based, human; conditions: 5 μM
Procedure: as §4, §5, §3

Molecule	cytotoxicity for Dictyostelium pten− cells [1]	effect on morphology and growth of wild type cells (wild type cells [2])	effect on growth or survival of pten− cells in the library screen [3]	also measured
CC(C)c1c(C(=O)Nc2ccccc2)c(-c2ccccc2)c(-c2ccc(F)cc2)n1CC[C@@H](O)C[C@@H](O)CC(=O)O [atorvastatin]	well tolerated	–	–	–
Oc1c(Cl)cc(Cl)c2cccnc12 [chloroxine]	–	little or no effect	selectively slow down the growth of or kill pten− cells	–
CN(C)CCCN1c2ccccc2Sc2ccccc21 [promazine]	–	little or no effect	selectively slow down the growth of or kill pten− cells	–
CC(C)n1c(/C=C/C(O)CC(O)CC(=O)O)c(-c2ccc(F)cc2)c2ccccc21 (stereo not drawn) [fluvastatin]	high cytotoxicity; also recorded: higher efficacy compared to all other statins	little or no effect	selectively slow down the growth of or kill pten− cells	growth and survival of Dictyostelium pten− cells (FIG. 8) ([1]; 5 μM, images 17, 41 and 65 hours after treatment): selectively affected the growth and survival; time after drug treatment at which cell death started to occur [1]: around 40 hours; growth of pten− cells compared to DMSO control [1]: grew much slower; growth of wild type cells treated with the statins (wild type cells [4]): no significant growth defect
Nc1ccc(/N=N/c2ccccc2)c(N)n1 [phenazopyridine]	–	little or no effect	selectively slow down the growth of or kill pten− cells	–
CC[C@H](C)C(=O)O[C@H]1C[C@H](O)C=C2C=C[C@H](C)[C@H](CC[C@@H](O)C[C@@H](O)CC(=O)O)[C@H]21 [pravastatin]	well tolerated	–	–	–
polymyxin	–	little or no effect	selectively slow down the growth of or kill pten− cells	–
CC(Cc1cccc(C(F)(F)F)c1)NCCOC(=O)c1ccccc1 (stereo not drawn) [benfluorex]	–	little or no effect	selectively slow down the growth of or kill pten− cells	–
CSc1ccc2c(c1)N(CCC1CCCCN1C)c1ccccc1S2 (stereo not drawn) [thioridazine]	–	little or no effect	selectively slow down the growth of or kill pten− cells	–
CN(C)CCCN1c2ccccc2Sc2ccc(Cl)cc21 [chlorpromazine]	–	little or no effect	selectively slow down the growth of or kill pten− cells	–
CC(C)c1nc(N(C)S(C)(=O)=O)nc(-c2ccc(F)cc2)c1/C=C/[C@@H](O)C[C@@H](O)CC(=O)O [rosuvastatin]	well tolerated	–	–	–
CC[C@H](C)C(=O)O[C@H]1C[C@@H](C)C=C2C=C[C@H](C)[C@H](CC[C@@H]3C[C@@H](O)CC(=O)O3)[C@H]21 [lovastatin]	well tolerated	–	–	–
O=C(O)C[C@H](O)C[C@H](O)/C=C/c1c(C2CC2)nc2ccccc2c1-c1ccc(F)cc1 [pitavastatin]	high cytotoxicity; also recorded: higher efficacy compared to all other statins	little or no effect	selectively slow down the growth of or kill pten− cells	effects of pitavastatin with supplementation of cholesterol (pten−/− cells): not cholesterol; effects of pitavastatin with supplementation of GGPP (pten−/− cells; increasing doses of pitavastatin, with or without GGPP): blocked the toxic effects; also recorded: completely blocked; effects of pitavastatin with supplementation of mevalonic acid (MVA) (pten−/− cells; increasing doses of pitavastatin, with or without MVA): blocked the toxic effects; also recorded: completely blocked; time after drug treatment at which cell death started to occur [1]: around 40 hours; growth of pten− cells compared to DMSO control [1]: grew much slower; growth of wild type cells treated with the statins (wild type cells [4]): no significant growth defect; cell death in PIK3CA knock-in cells [5]: extensive cell death; cell growth of PIK3CA knock-in cells [5]: marked reduction in cell growth; cell growth of MCF-10A pten−/− cells ([6]; 20, 44, 68 hours): selectively inhibited the growth and survival; also recorded: marked reduction in cell growth; cell death in MCF-10A pten−/− cells ([6]; 44 and 68 hours): cell death induced; also recorded: extensive cell death; reduction in cell growth and cell death in parental MCF-10A cells (MCF-10A cells): not MCF-10A cells
